Numbered stars: 1 amine (or outer) side, 2 acyl side, 3 side chain; on linkers, the order of the positions; unused ones are H or OH. Bridge positions count the residues as written; N and C are the ends. Square brackets hold non-standard residues; d marks the D form. Peptide text beside a SMILES is read from it. * marks the point of attachment. Phe(3,4-Cl2) = N[C@@H](Cc1ccc(Cl)c(Cl)c1)C(=O)O; Phe(4-COOH) = N[C@@H](Cc1ccc(C(=O)O)cc1)C(=O)O; Phe(3,4-F2) = N[C@@H](Cc1ccc(F)c(F)c1)C(=O)O; X9 = O=C([C@H](Cc1cc(F)c(F)cc1F)N[*:1])[*:2]; Bip = N[C@@H](Cc1ccc(-c2ccccc2)cc1)C(=O)O; Phe(3-Me) = Cc1cccc(C[C@H](N)C(=O)O)c1; Phe(4-F) = N[C@@H](Cc1ccc(F)cc1)C(=O)O; 1Nal = N[C@@H](Cc1cccc2ccccc12)C(=O)O; Bta = N[C@@H](Cc1csc2ccccc12)C(=O)O; Cha = N[C@@H](CC1CCCCC1)C(=O)O; Carboxymethyl = O=C(O)C*; Orn = NCCC[C@H](N)C(=O)O; Aun = NCCCCCCCCCCC(=O)O; Dab = NCC[C@H](N)C(=O)O; Dap = NC[C@H](N)C(=O)O; AEEA = NCCOCCOCC(=O)O

The IC50 is the concentration needed to halve the response being measured.

The target of this assay is T1, PD-1/PD-L1 interaction (PE-labeled human PD-L1-Ig binding to Jurkat cell line over-expressing human PD-1) (Homo sapiens, UniProt Q15116).
T1 construct: expressed in transfected cells; host or cells: Jurkat
T1 sequence (Q15116 25-288): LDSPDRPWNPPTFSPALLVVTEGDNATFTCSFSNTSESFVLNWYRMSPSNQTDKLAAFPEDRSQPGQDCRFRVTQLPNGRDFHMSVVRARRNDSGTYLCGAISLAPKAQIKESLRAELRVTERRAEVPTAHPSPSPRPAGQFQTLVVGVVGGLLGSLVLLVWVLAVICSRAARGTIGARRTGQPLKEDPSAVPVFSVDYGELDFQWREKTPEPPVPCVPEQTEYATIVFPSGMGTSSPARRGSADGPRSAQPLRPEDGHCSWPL
As to the kind of experiment: Jurkat-PD-1 Cell Binding High-Content Screening Assay (CBA). It is filed as cell-based. Conditions: Jurkat cell line over-expressing human PD-1; PE-labeled PD-L1-Ig 20 nM final; read-out: Jurkat hPD1-PDL1 IC50. In a few lines:
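Binding of fluorescent PD-L1-Ig (phycoerythrin on Ig tag, 20 nM final, 1 h) measured by high-content imaging of fixed, Hoechst-counterstained Jurkat-hPD-1 cells. Compound added 2 h at 37° C beforehand, in DMEM with 10% fetal calf serum.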
As to `CC(C)C[C@H]1NC(=O)[C@H](CCCN)NC(=O)[C@H](Cc2ccc(O)cc2)NC(=O)[C@H](Cc2ccc(-c3ccccc3)cc2)NC(=O)[C@H](C(C)C)NC(=O)[C@H](Cc2cccc3ccccc23)NC(=O)[C@H](CC(=O)O)NC(=O)[C@H](Cc2ccc(OCC(=O)O)cc2)NC(=O)[C@H](CN)NC(=O)CSC[C@@H](C(=O)N[C@@H](CCN)C(=O)NCCOCCOCC(=O)NCCCCCCCCCCC(=O)O)NC(=O)[C@H](CCCN)NC(=O)[C@H](C(C)C)NC(=O)[C@H](CC2CCCCC2)NC(=O)[C@H](CCN)NC1=O` [Compound 1297] ({CH2CO}-[Dap]Y(Carboxymethyl)D[1Nal]V[Bip]Y[Orn][dL][Dab][Cha]V[Orn]C[Dab][AEEA][Aun]-OH; thioether N-14), the concentration for half-maximal inhibition (IC50) was determined as 24.6 nM.

As to `CC(C)C[C@H]1NC(=O)[C@H](CCCN)NC(=O)[C@H](Cc2ccc(O)cc2)NC(=O)[C@H](Cc2ccc(-c3ccccc3)cc2)NC(=O)[C@H](Cc2ccc(OCC(=O)O)cc2)NC(=O)[C@H](Cc2ccc(F)cc2)NC(=O)[C@H](CC(=O)O)NC(=O)[C@H](Cc2ccc(OCC(=O)O)cc2)NC(=O)[C@H](CN)NC(=O)CSC[C@@H](C(=O)N[C@@H](CCN)C(=O)NCCOCCOCC(=O)NCCCCCCCCCCC(=O)O)NC(=O)[C@H](CCCN)NC(=O)[C@H](C(C)C)NC(=O)[C@H](CC2CCCCC2)NC(=O)[C@H](CCN)NC1=O` [Compound 1298] ({CH2CO}-[Dap]Y(Carboxymethyl)D[Phe(4-F)]Y(Carboxymethyl)[Bip]Y[Orn][dL][Dab][Cha]V[Orn]C[Dab][AEEA][Aun]-OH; thioether N-14), the 50% inhibitory concentration (IC50) amounted to 28.8 nM.

Consider `CC(C)C[C@H]1NC(=O)[C@H](CCCN)NC(=O)[C@H](Cc2ccc(O)cc2)NC(=O)[C@H](Cc2ccc(-c3ccccc3)cc2)NC(=O)[C@H](C(C)C)NC(=O)[C@H](Cc2ccc(F)c(F)c2)NC(=O)[C@H](CC(=O)O)NC(=O)[C@H](Cc2ccc(OCC(=O)O)cc2)NC(=O)[C@H](CN)NC(=O)CSC[C@@H](C(=O)N[C@@H](CCN)C(=O)NCCOCCOCC(=O)NCCCCCCCCCCC(=O)O)NC(=O)[C@H](CCCN)NC(=O)[C@H](C(C)C)NC(=O)[C@H](CC2CCCCC2)NC(=O)[C@H](CCN)NC1=O` [Compound 1301] ({CH2CO}-[Dap]Y(Carboxymethyl)D[Phe(3,4-F2)]V[Bip]Y[Orn][dL][Dab][Cha]V[Orn]C[Dab][AEEA][Aun]-OH; thioether N-14), for which the IC50 was 31.9 nM.

Turning to `CC(C)C[C@H]1NC(=O)[C@H](CCCN)NC(=O)[C@H](Cc2ccc(O)cc2)NC(=O)[C@H](Cc2ccc(-c3ccccc3)cc2)NC(=O)[C@H](C(C)C)NC(=O)[C@H](Cc2ccc(O)cc2)NC(=O)[C@H](CC(=O)O)NC(=O)[C@H](Cc2ccc(OCC(=O)O)cc2)NC(=O)[C@H](CN)NC(=O)CSC[C@@H](C(=O)N[C@@H](CCN)C(=O)NCCOCCOCC(=O)NCCCCCCCCCCC(=O)O)NC(=O)[C@H](CCCN)NC(=O)[C@H](C(C)C)NC(=O)[C@H](CC2CCCCC2)NC(=O)[C@H](CCN)NC1=O` [Compound 1302] ({CH2CO}-[Dap]Y(Carboxymethyl)DYV[Bip]Y[Orn][dL][Dab][Cha]V[Orn]C[Dab][AEEA][Aun]-OH; thioether N-14), the IC50 is 31.9 nM.

With `Cc1cccc(C[C@@H]2NC(=O)[C@H](CC(=O)O)NC(=O)[C@H](Cc3ccc(OCC(=O)O)cc3)NC(=O)[C@H]([C@@H](C)O)NC(=O)CSC[C@@H](C(=O)N[C@@H](CCCCN)C(=O)NCCCCCCCCCCC(=O)O)NC(=O)[C@H]([C@@H](C)O)NC(=O)[C@H](C(C)C)NC(=O)[C@H](CC3CCCCC3)NC(=O)[C@H](CCN)NC(=O)[C@@H](CC(C)C)NC(=O)[C@H](CCCN)NC(=O)[C@H](Cc3ccc(OCC(=O)O)cc3)NC(=O)[C@H](Cc3ccc(-c4ccccc4)cc3)NC(=O)[C@H](Cc3ccc(C(=O)O)cc3)NC2=O)c1` [Compound 1303] ({CH2CO}-TY(Carboxymethyl)D[Phe(3-Me)][Phe(4-COOH)][Bip]Y(Carboxymethyl)[Orn][dL][Dab][Cha]VTCK[Aun]-OH; thioether N-14), the concentration for half-maximal inhibition (IC50) is 32.2 nM.

`CC(C)C[C@H]1NC(=O)[C@H](CCCN)NC(=O)[C@H](Cc2ccc(O)cc2)NC(=O)[C@H](Cc2ccc(-c3ccccc3)cc2)NC(=O)[C@H](C(C)C)NC(=O)[C@H](Cc2csc3ccccc23)NC(=O)[C@H](CC(=O)O)NC(=O)[C@H](Cc2ccc(OCC(=O)O)cc2)NC(=O)[C@H](CN)NC(=O)CSC[C@@H](C(=O)N[C@@H](CCN)C(=O)NCCOCCOCC(=O)NCCCCCCCCCCC(=O)O)NC(=O)[C@H](CCCN)NC(=O)[C@H](C(C)C)NC(=O)[C@H](CC2CCCCC2)NC(=O)[C@H](CCN)NC1=O` [Compound 1304] ({CH2CO}-[Dap]Y(Carboxymethyl)D[Bta]V[Bip]Y[Orn][dL][Dab][Cha]V[Orn]C[Dab][AEEA][Aun]-OH; thioether N-14): the IC50 turned out to be 37.3 nM.

Regarding `CC(C)C[C@H]1NC(=O)[C@H](CCCN)NC(=O)[C@H](Cc2ccc(O)cc2)NC(=O)[C@H](Cc2ccc(-c3ccccc3)cc2)NC(=O)[C@H](Cc2ccc(OCC(=O)O)cc2)NC(=O)[C@H](Cc2cccc3ccccc23)NC(=O)[C@H](CC(=O)O)NC(=O)[C@H](Cc2ccc(OCC(=O)O)cc2)NC(=O)[C@H](CN)NC(=O)CSC[C@@H](C(=O)N[C@@H](CCN)C(=O)NCCOCCOCC(=O)NCCCCCCCCCCC(=O)O)NC(=O)[C@H](CCCN)NC(=O)[C@H](C(C)C)NC(=O)[C@H](CC2CCCCC2)NC(=O)[C@H](CCN)NC1=O` [Compound 1305] ({CH2CO}-[Dap]Y(Carboxymethyl)D[1Nal]Y(Carboxymethyl)[Bip]Y[Orn][dL][Dab][Cha]V[Orn]C[Dab][AEEA][Aun]-OH; thioether N-14), the 50% inhibitory concentration (IC50) amounted to 43.4 nM.

On to `CC(C)C[C@H]1NC(=O)[C@H](CCCN)NC(=O)[C@H](Cc2ccc(O)cc2)NC(=O)[C@H](Cc2ccc(-c3ccccc3)cc2)NC(=O)[C@H](Cc2ccc(OCC(=O)O)cc2)NC(=O)[C@H](Cc2c[nH]c3ccccc23)NC(=O)[C@H](CC(=O)O)NC(=O)[C@H](Cc2ccc(OCC(=O)O)cc2)NC(=O)[C@H](CN)NC(=O)CSC[C@@H](C(=O)N[C@@H](CCN)C(=O)NCCOCCOCC(=O)NCCCCCCCCCCC(=O)O)NC(=O)[C@H](CCCN)NC(=O)[C@H](C(C)C)NC(=O)[C@H](CC2CCCCC2)NC(=O)[C@H](CCN)NC1=O` [Compound 1306] ({CH2CO}-[Dap]Y(Carboxymethyl)DWY(Carboxymethyl)[Bip]Y[Orn][dL][Dab][Cha]V[Orn]C[Dab][AEEA][Aun]-OH; thioether N-14), for which the concentration for half-maximal inhibition (IC50) was 48.9 nM.

As to `CC(C)C[C@H]1NC(=O)[C@H](CCCN)NC(=O)[C@H](Cc2ccc(O)cc2)NC(=O)[C@H](Cc2ccc(-c3ccccc3)cc2)NC(=O)[C@H](Cc2ccc(OCC(=O)O)cc2)NC(=O)[C@H](Cc2ccc(Cl)c(Cl)c2)NC(=O)[C@H](CC(=O)O)NC(=O)[C@H](Cc2ccc(OCC(=O)O)cc2)NC(=O)[C@H](CN)NC(=O)CSC[C@@H](C(=O)N[C@@H](CCN)C(=O)NCCOCCOCC(=O)NCCCCCCCCCCC(=O)O)NC(=O)[C@H](CCCN)NC(=O)[C@H](C(C)C)NC(=O)[C@H](CC2CCCCC2)NC(=O)[C@H](CCN)NC1=O` [Compound 1307] ({CH2CO}-[Dap]Y(Carboxymethyl)D[Phe(3,4-Cl2)]Y(Carboxymethyl)[Bip]Y[Orn][dL][Dab][Cha]V[Orn]C[Dab][AEEA][Aun]-OH; thioether N-14), the IC50 was 49.6 nM.

On to `CC(C)C[C@H]1NC(=O)[C@H](CCCN)NC(=O)[C@H](Cc2ccc(O)cc2)NC(=O)[C@H](Cc2ccc(-c3ccccc3)cc2)NC(=O)[C@H](C(C)C)NC(=O)[C@H](Cc2cc(F)c(F)cc2F)NC(=O)[C@H](CC(=O)O)NC(=O)[C@H](Cc2ccc(OCC(=O)O)cc2)NC(=O)[C@H](CN)NC(=O)CSC[C@@H](C(=O)N[C@@H](CCN)C(=O)NCCOCCOCC(=O)NCCCCCCCCCCC(=O)O)NC(=O)[C@H](CCCN)NC(=O)[C@H](C(C)C)NC(=O)[C@H](CC2CCCCC2)NC(=O)[C@H](CCN)NC1=O` [Compound 1308] ({CH2CO}-[Dap]Y(Carboxymethyl)D[X9]V[Bip]Y[Orn][dL][Dab][Cha]V[Orn]C[Dab][AEEA][Aun]-OH; thioether N-14), for which the half-inhibitory concentration (IC50) worked out at 59.7 nM.

As for `CC(C)C[C@H]1NC(=O)[C@H](CCCN)NC(=O)[C@H](Cc2ccc(O)cc2)NC(=O)[C@H](Cc2ccc(-c3ccccc3)cc2)NC(=O)[C@H](Cc2ccc(OCC(=O)O)cc2)NC(=O)[C@H](Cc2csc3ccccc23)NC(=O)[C@H](CC(=O)O)NC(=O)[C@H](Cc2ccc(OCC(=O)O)cc2)NC(=O)[C@H](CN)NC(=O)CSC[C@@H](C(=O)N[C@@H](CCN)C(=O)NCCOCCOCC(=O)NCCCCCCCCCCC(=O)O)NC(=O)[C@H](CCCN)NC(=O)[C@H](C(C)C)NC(=O)[C@H](CC2CCCCC2)NC(=O)[C@H](CCN)NC1=O` [Compound 1309] ({CH2CO}-[Dap]Y(Carboxymethyl)D[Bta]Y(Carboxymethyl)[Bip]Y[Orn][dL][Dab][Cha]V[Orn]C[Dab][AEEA][Aun]-OH; thioether N-14), the IC50 is 63.4 nM.

Consider `CC(C)C[C@H]1NC(=O)[C@H](CCCN)NC(=O)[C@H](Cc2ccc(O)cc2)NC(=O)[C@H](Cc2ccc(-c3ccccc3)cc2)NC(=O)[C@H](C(C)C)NC(=O)[C@H](Cc2ccc(Cl)c(Cl)c2)NC(=O)[C@H](CC(=O)O)NC(=O)[C@H](Cc2ccc(OCC(=O)O)cc2)NC(=O)[C@H](CN)NC(=O)CSC[C@@H](C(=O)N[C@@H](CCN)C(=O)NCCOCCOCC(=O)NCCCCCCCCCCC(=O)O)NC(=O)[C@H](CCCN)NC(=O)[C@H](C(C)C)NC(=O)[C@H](CC2CCCCC2)NC(=O)[C@H](CCN)NC1=O` [Compound 1310] ({CH2CO}-[Dap]Y(Carboxymethyl)D[Phe(3,4-Cl2)]V[Bip]Y[Orn][dL][Dab][Cha]V[Orn]C[Dab][AEEA][Aun]-OH; thioether N-14), for which the concentration for half-maximal inhibition (IC50) came out at 64.6 nM.

For the origin of these results see patent US20260022142A1, “MACROCYCLIC IMMUNOMODULATORS” (Bristol-Myers Squibb Company, priority 2022, published 2026).
